Legend:
Type in all cases: in vivo
Settings in all cases: evaluated after 13 days
[1] = test system: Echinochloa crus-galli (ECHCG); test: Pre-emergence herbicidal activity, Echinochloa crus-galli
Procedure: (§1) Seeds of a variety of test species were sown in standard soil in pots: Triticum aestivium (TRZAW), Avena fatua (AVEFA), Alopecurus myosuroides (ALOMY), Echinochloa crus-galli (ECHCG), Lolium perenne (LOLPE), Zea Mays (ZEAMX), Abutilon theophrasti (ABUTH), Amaranthus retroflexus (AMARE) and Setaria faberi (SETFA). After cultivation for one day (pre-emergence) under controlled conditions in a glasshouse (at 24/16° C., day/night; 14 hours light; 65% humidity), the plants were sprayed with an aqueous spray solution derived from the formulation of the technical active ingredient in acetone/water (50:50) solution containing 0.5% Tween 20 (polyoxyethelyene sorbitan monolaurate, CAS RN 9005-64-5). The test plants were then grown in a glasshouse under controlled conditions (at 24/16°, day/night; 14 hours light; 65% humidity) and watered twice daily. After 13 days, the test was evaluated (5=total damage to plant; 0=no damage to plant).

[2] = test system: Triticum aestivium (TRZAW); test: Pre-emergence herbicidal activity, Triticum aestivium; design: key: 5=total damage to plant; 0=no damage to plant
Procedure: as §1

Avena fatua (AVEFA) [3] = test: Pre-emergence herbicidal activity, Avena fatua; design: key: 5=total damage to plant; 0=no damage to plant
Procedure: as §1

[4] = test system: Alopecurus myosuroides (ALOMY); test: Pre-emergence herbicidal activity, Alopecurus myosuroides; design: key: 5=total damage to plant; 0=no damage to plant
Procedure: as §1

Setaria faberi (SETFA) [5] = test: Pre-emergence herbicidal activity, Setaria faberi; design: key: 5=total damage to plant; 0=no damage to plant
Procedure: as §1

Lolium perenne (LOLPE) [6] = test: Post-emergence herbicidal activity, Lolium perenne; design: key: 5=total damage to plant; 0=no damage to plant
Procedure: (§2) Seeds of a variety of test species were sown in standard soil in pots: Triticum aestivium (TRZAW), Avena fatua (AVEFA), Alopecurus myosuroides (ALOMY), Echinochloa crus-galli (ECHCG), Lolium perenne (LOLPE), Zea Mays (ZEAMX), Abutilon theophrasti (ABUTH), Amaranthus retroflexus (AMARE) and Setaria faberi (SETFA). After 8 days cultivation (post-emergence) under controlled conditions in a glasshouse (at 24/16° C., day/night; 14 hours light; 65% humidity), the plants were sprayed with an aqueous spray solution derived from the formulation of the technical active ingredient in acetone/water (50:50) solution containing 0.5% Tween 20 (polyoxyethelyene sorbitan monolaurate, CAS RN 9005-64-5). The test plants were then grown in a glasshouse under controlled conditions (at 24/16° C., day/night; 14 hours light; 65% humidity) and watered twice daily. After 13 days, the test was evaluated (5=total damage to plant; 0=no damage to plant).

[7] = test system: Echinochloa crus-galli (ECHCG); test: Post-emergence herbicidal activity, Echinochloa crus-galli; design: key: 5=total damage to plant; 0=no damage to plant
Procedure: as §2

Lolium perenne (LOLPE) [8] = test: Pre-emergence herbicidal activity, Lolium perenne; design: key: 5=total damage to plant; 0=no damage to plant
Procedure: as §1

Avena fatua (AVEFA) [9] = test: Post-emergence herbicidal activity, Avena fatua; design: key: 5=total damage to plant; 0=no damage to plant
Procedure: as §2

[10] = test system: Alopecurus myosuroides (ALOMY); test: Post-emergence herbicidal activity, Alopecurus myosuroides; design: key: 5=total damage to plant; 0=no damage to plant
Procedure: as §2

Setaria faberi (SETFA) [11] = test: Post-emergence herbicidal activity, Setaria faberi; design: key: 5=total damage to plant; 0=no damage to plant
Procedure: as §2

[12] = test system: Triticum aestivium (TRZAW); test: Post-emergence herbicidal activity, Triticum aestivium; design: key: 5=total damage to plant; 0=no damage to plant
Procedure: as §2

SMILES	Control of ECHCG after pre-emergence application (score 0-5) ([1]; 1000 g/ha)	Control of TRAZW after pre-emergence application (score 0-5) ([2]; 1000 g/ha)	Control of AVEFA after pre-emergence application (score 0-5) (Avena fatua (AVEFA) [3]; 1000 g/ha)	Control of ALOMY after pre-emergence application (score 0-5) ([4]; 1000 g/ha)	Control of SETFA after pre-emergence application (score 0-5) (Setaria faberi (SETFA) [5]; 1000 g/ha)	Control of LOLPE after post-emergence application (score 0-5) (Lolium perenne (LOLPE) [6]; 1000 g/ha)	Control of ECHCG after post-emergence application (score 0-5) ([7]; 1000 g/ha)	Control of LOLPE after pre-emergence application (score 0-5) (Lolium perenne (LOLPE) [8]; 1000 g/ha)	Control of AVEFA after post-emergence application (score 0-5) (Avena fatua (AVEFA) [9]; 1000 g/ha)	Control of ALOMY after post-emergence application (score 0-5) ([10]; 1000 g/ha)	Control of SETFA after post-emergence application (score 0-5) (Setaria faberi (SETFA) [11]; 1000 g/ha)	Control of TRAZW after post-emergence application (score 0-5) ([12]; 1000 g/ha)	further results
COC(=O)c1nc(-c2cncc(F)c2)ccc1N(C(=O)OC(C)(C)C)C(=O)OC(C)(C)C [Compound B76, methyl 3-[bis(tert-butoxycarbonyl)amino]-6-(5-fluoro-3-pyridyl)pyridine-2-carboxylate]	1	0	0	0	3	1	1	0	0	0	3	0	
CSCCCNC(=O)Nc1ccc(-c2cncc(F)c2)nc1C(F)(F)F [Compound B98]													Control of ECHCG after pre-emergence application (score 0-5) ([1]; 250 g/ha): 1; Control of TRAZW after pre-emergence application (score 0-5) ([2]; 250 g/ha): 0; Control of AVEFA after pre-emergence application (score 0-5) (Avena fatua (AVEFA) [3]; 250 g/ha): 1; Control of ALOMY after pre-emergence application (score 0-5) ([4]; 250 g/ha): 0; Control of SETFA after pre-emergence application (score 0-5) (Setaria faberi (SETFA) [5]; 250 g/ha): 4; Control of LOLPE after post-emergence application (score 0-5) (Lolium perenne (LOLPE) [6]; 250 g/ha): 0; Control of ECHCG after post-emergence application (score 0-5) ([7]; 250 g/ha): 2; Control of LOLPE after pre-emergence application (score 0-5) (Lolium perenne (LOLPE) [8]; 250 g/ha): 1; Control of AVEFA after post-emergence application (score 0-5) (Avena fatua (AVEFA) [9]; 250 g/ha): 3; Control of ALOMY after post-emergence application (score 0-5) ([10]; 250 g/ha): 0; Control of SETFA after post-emergence application (score 0-5) (Setaria faberi (SETFA) [11]; 250 g/ha): 5; Control of TRAZW after post-emergence application (score 0-5) ([12]; 250 g/ha): 0
CC(C)c1cc(NC(=O)Nc2ccc(-c3cncc(F)c3)nc2C(F)(F)F)on1 [Compound B40]	1	0	0	0	1	1	1	1	2	0	3	0	
COc1nc(-c2cncc(F)c2)ccc1NC(=O)OC(C)(C)C [Compound B78]	2	0	0	0	4	1	2	1	2	0	5	0	
CC(C)OC(=O)Nc1ccc(-c2cncc(F)c2)nc1C#N [Compound B115]	4	0	2	0	5	3	5	0	4	1	5	1	
O=C(Nc1ccc(-c2cncc(F)c2)nc1C(F)(F)F)OC1CCS(=O)(=O)C1 (stereo not shown) [Compound B66]	3	0	2	0	5		4	1		0	5	1	
COC(=O)c1nc(-c2cncc(F)c2)ccc1NC(=O)OC(C)(C)C [Compound B77]	1	0	0	0		1	1	0	1	0	2	0	
CC(C)NC(=O)Nc1ccc(-c2cncc(F)c2)nc1C(F)(F)F [Compound B37, 1-[6-(5-fluoro-3-pyridyl)-2-(trifluoromethyl)-3-pyridyl]-3-isopropyl-urea]	4	0	2	0	5	2	5	1	3	0		0	
CN(C)C(=O)Nc1ccc(-c2cncc(F)c2)nc1C(F)(F)F [Compound B52]	3	0	2	0		3	4	1	3	0	5	0	
CN(C)C(=O)N(C)c1ccc(-c2cncc(F)c2)nc1C(F)(F)F [Compound B74]	4	1	2	1	5		4	1		0	5	0	
CC(C)(C)OC(=O)Nc1ccc(-c2cncc(OC(F)(F)F)c2)nc1C(F)(F)F [Compound B36]	3	0	2	0	5	1	3	0	3	0		0	

Source: patent US20210127673A1, “HERBICIDES” (SYNGENTA PARTICIPATIONS AG, priority 2016, published 2021)
